# Results reported in EP4624472A1, “DEGRADER INCLUDING NOVEL C-MET PROTEIN LIGAND AND PHARMACEUTICAL COMPOSITION INCLUDING SAME” (Innocure Therapeutics, Inc., priority 2022, dated 2024).
# Where two headings read alike, the source gives them in different places.
# Legend:
# SNU-638 = test: In vitro cell viability assay (cancer cell anti-proliferative activity), SNU-638; type: cell-based, human; conditions: SNU-638 cells, treated 72 hours, absorbance at 450 nm, read-out: In vitro cell viability assay (IC50, nM) SNU-638
# Experimental: (§1) The c-MET overexpressing human gastric cancer cell lines MKN45 and SNU638 were cultured in RPMI medium with 10% fetal bovine serum, penicillin (100 U/ml), and streptomycin ([…]), and the c-MET exon 14 skipping mutant human gastric cancer cell line Hs746T was cultured in DMEM media. The c-MET overexpressing human lung cancer cell line EBC-1 was cultured in MEM media with the addition of 10% fetal bovine serum, penicillin (100U/ml), and streptomycin ([…]). The normal cell line WI-38 derived from human lung tissue was cultured in EMEM medium with the addition of 10% fetal bovine serum, penicillin (100U/ml), and streptomycin ([…]).
# (§2) The compound synthesized in accordance with the present invention was prepared with a raw material solution of 10 mM dissolved in DMSO (dimethyl sulfoxide), and was sequentially diluted and processed.
# (§3) In order to evaluate the inhibitory activity on cell growth, cells were dispensed in a 96-well plate at a concentration of 5,000 cells/well and then treated with the compound of the present invention prepared at various concentrations for 72 hours. The absorbance measurement at 450 nm was calculated using the GraphicPad Prism 8.0 software. The IC50 value (concentration of the compound achieving 50% cytostatic inhibition) is the average value of the measured results. […]
# EBC-1 = test: In vitro cell viability assay (cancer cell anti-proliferative activity), EBC-1; type: cell-based, human; conditions: EBC-1 cells, treated 72 hours, absorbance at 450 nm, read-out: In vitro cell viability assay (IC50, nM) EBC-1
# Experimental: as §1, §2, §3
Compound,IC50 (SNU-638) [nM],IC50 (EBC-1) [nM],IC50 (SNU-638; Homo sapiens) [nM],IC50 (EBC-1; Homo sapiens) [nM]
"3-(6-oxo-1-(3-(5-(piperazine-1-yl)pyrimidine-2-yl)benzyl)-1,6-dihydropyridazine-3-yl)benzonitrile [Example C-6]",≤ 100,≤ 100,,
"CN1CCN(Cc2ccc(-c3cnc(N4CCO[C@H](Cn5nnc6nc(-c7cnn(C)c7)cnc65)C4)nc3)cc2)CC1 [ABN401, reference compound]",,,≤ 100,≤ 100
"Cn1cc(-c2cnc3c(nnn3C[C@@H]3CN(c4ncc(N5CCN(CC6CN(C(=O)OC(C)(C)C)C6)CC5)cn4)CCO3)n2)cn1 [Example B-1, tert-butyl(S)-3-((4-(2-(2-((5-(1-methyl-1H-pyrazole-4-yl)-1H-[1,2,3]triazolo[4,5-b]pyrazine-1-yl)methyl)morpholino)pyrimidine-5-il)ppiperazine-1-il)methyl)azetidine-1-carboxylate]",,,≤ 100,≤ 100
Cn1cc(-c2cnc3c(nnn3C[C@@H]3CN(c4ncc(N5CCN(CC6CNC6)CC5)cn4)CCO3)n2)cn1 [Example B-2],,,≤ 100,≤ 100
"CN1CC(CN2CCN(c3cnc(N4CCO[C@H](Cn5nnc6nc(-c7cnn(C)c7)cnc65)C4)nc3)CC2)C1 [Example B-3, (S)-2-((5-(1-methyl-1H-pyrazole-4-yl)-1H-[1,2,3]triazolo[4,5-b]pyrazine-1-yl)methyl)-4-(5-(4-((1-methylazetidine-3-yl)methyl)piperazine-1-il)pyrimidine-2-yl)morpholine]",,,≤ 100,≤ 100
Cn1cc(-c2cnc3c(nnn3C[C@@H]3CN(c4ncc(N5CC(CN6CCN(C(=O)OCc7ccccc7)CC6)C5)cn4)CCO3)n2)cn1 [Example B-4],,,≤ 100,≤ 100
"Cn1cc(-c2cnc3c(nnn3C[C@@H]3CN(c4ncc(N5CC(CN6CCNCC6)C5)cn4)CCO3)n2)cn1 [Example B-5, (S)-2-((5-(1-methyl-1H-pyrazole-4-yl)-1H-[1,2,3]triazolo[4,5-b]pyrazine-1-yl)methyl)-4-(5-(3-(piperazine-1-ylmethyl)azetidine-1-il)pyrimidine-2-yl)morpholine]",,,≤ 100,≤ 100
"Cn1cc(-c2cnc3c(nnn3C[C@@H]3CN(c4ncc(N5CC(COCc6ccccc6)C5)cn4)CCO3)n2)cn1 [Example B-6, (S)-4-(5-(3-((benzyloxy)methyl)azetidine-1-il)pyrimidine-2-yl)-2-((5-(1-methyl-1H-pyrazole-4-yl)-1H-[1,2,3]triazolo[4,5-b]pyrazine-1-yl)methyl)morpholine]",,,≤ 100,≤ 100
"Cn1cc(-c2cnc3c(nnn3C[C@@H]3CN(c4ncc(N5CC(CO)C5)cn4)CCO3)n2)cn1 [Example B-7, (S)-(1-(2-(2-((5-(1-methyl-1H-pyrazole-4-yl)-1H-[1,2,3]triazolo[4,5-b]pyrazine-1-yl)methyl)morpholino)pyrimidine-5-il)azetidine-3-yl)methanol]",,,≤ 100,≤ 100
"Cc1ccc(S(=O)(=O)OCC2CN(c3cnc(N4CCO[C@H](Cn5nnc6nc(-c7cnn(C)c7)cnc65)C4)nc3)C2)cc1 [Example B-8, (S)-(1-(2-(2-((5-(1-methyl-1H-pyrazole-4-yl)-1H-[1,2,3]triazolo[4,5-b]pyrazine-1-yl)methyl)morpholino)pyrimidine-5-il)azetidine-3-yl)methyl 4-methylbenzenesulfonate]",,,≤ 100,≤ 100
Cn1cc(-c2cnc3c(nnn3C[C@@H]3CN(c4ncc(N5CC(CN6CCN(C(=O)OC(C)(C)C)CC6)C5)cn4)CCO3)n2)cn1 [Example B-9],,,≤ 100,≤ 100
"CN1CCN(CC2CN(c3cnc(N4CCO[C@H](Cn5nnc6nc(-c7cnn(C)c7)cnc65)C4)nc3)C2)CC1 [Example B-10, (S)-2-((5-(1-methyl-1H-pyrazole-4-yl)-1H-[1,2,3]triazolo[4,5-b]pyrazin-1-yl)methyl)-4-(5-(3-((4-methylpiperazine-1-yl)methyl)azetidine-1-il)pyrimidine-2-yl)morpholine]",,,≤ 100,≤ 100
"COc1ccc(COCC2CN(c3cnc(N4CCO[C@H](Cn5nnc6nc(-c7cnn(C)c7)cnc65)C4)nc3)C2)cc1 [Example B-11, (S)-4-(5-(3-(((4-methoxybenzyl)oxy)methyl)azetidine-1-il)pyrimidine-2-yl)-2-((5-(1-methyl-1H-pyrazole-4-yl)-1H-[1,2,3]triazolo[4,5-b]pyrazine-1-yl)methyl)morpholine]",,,≤ 100,≤ 100
"CC(C)(C)OC(=O)Nc1ccc(COCC2CN(c3cnc(N4CCO[C@H](Cn5nnc6nc(-c7cn[nH]c7)cnc65)C4)nc3)C2)cc1 [Example B-12, tert-butyl(S)-(4-(((1-(2-(2-((5-(1H-pyrazole-4-yl)-1H-[1,2,3]triazolo[4,5-b]pyrazine-1-yl)methyl)morpholino)pyrimidine-5-il)azetidine-3-il)methoxy)methyl)phenyl)carbamate]",≤ 1000,≤ 1000,,
Cn1cc(-c2cnc3c(nnn3C[C@@H]3CN(c4ncc(N5CC(COCc6ccc(NC(=O)OC(C)(C)C)nc6)C5)cn4)CCO3)n2)cn1 [Example B-13],,,≤ 1000,≤ 1000
"CC(C)(C)OC(=O)N1CCO[C@@H](COc2cnc(-c3cccc(Cn4nc(-c5cccc(C#N)c5)ccc4=O)c3)nc2)C1 [Example C-1, tert-butyl(2R)-2-(((2-(3-((3-(3-cyanophenyl)-6-oxopyridazin-1(6H)-yl)methyl)phenyl)pyrimidine-5-yl)oxy)methyl)methyl-4-carboxylate]",,,≤ 100,≤ 100
"N#Cc1cccc(-c2ccc(=O)n(Cc3cccc(-c4ncc(OC[C@@H]5CNCCO5)cn4)c3)n2)c1 [Example C-2, (S)-3-(1-(3-(5-(morpholine-2-ylmethoxy)pyrimidine-2-yl)benzyl)-6-oxo-1,6-dihydropyridazine-3-yl)benzonitrile]",,,≤ 100,≤ 100
CC(C)(C)OC(=O)N1CCN(CCOc2cnc(-c3cccc(Cn4nc(-c5cccc(C#N)c5)ccc4=O)c3)nc2)CC1 [Example C-3],,,≤ 100,≤ 100
"N#Cc1cccc(-c2ccc(=O)n(Cc3cccc(-c4ncc(OCCN5CCNCC5)cn4)c3)n2)c1 [Example C-4, 3-(6-oxo-1-(3-(5-(2-(piperazine-1-yl)ethoxy)pyrimidine-2-yl)benzyl)-1,6-dihydropyridazine-3-yl)benzonitrile]",,,≤ 100,≤ 100
CC(C)(C)OC(=O)N1CCN(c2cnc(-c3cccc(Cn4nc(-c5cccc(C#N)c5)ccc4=O)c3)nc2)CC1 [Example C-5],≤ 100,≤ 100,,
